pIC50: −log10 of the molar value.
tested on: human monocyte stimulated cytokine production (TNF-α); assay: Monocyte Assay (LPS-stimulated TNF-α production); format: cell-based; conditions: human CD14+ monocytes, 200 ng/mL LPS, 24 hrs, TNF-α by ELISA
Protocol: Effect of IKK-β inhibition on human monocyte stimulated cytokine production was assessed as follows: Monocytes were isolated from heparinized whole blood by Ficoll gradient, followed by purification of CD14+ cells using MACS magnetic cell separation beads. Isolated monocytes were then adhered to 96-well culture plates at 1×10^6 cells/mL in RPMI 1640 10% FBS (JRH Biosciences, Lenexa Kans.) for 2 h. to further enrich the monocyte population. The media was then removed, cells washed once with RPMI 1640, and 0.125 mL RPMI 1640 10% FBS was added to the wells. Test compounds are added to the wells 30 minutes prior to stimulation with a final vehicle concentration of 0.1% DMSO. Monocytes were activated by the addition of 200 ng/mL endotoxin (LPS; E. coli serotype 026:B6) (Sigma, St. Louis, Mo.) and incubated for 24 hrs at 37 C. Cell-free supernates were analyzed by ELISA for TNF-α using Pharmingen matched pair Abs. Viability of the cells was determined by10% trypan blue exclusion.

SMILES | pIC50
NC(=O)c1cc(-c2ccccc2)cc2c(C3CCN(S(=O)(=O)CCOCC4CCOC4)CC3)c[nH]c12 (stereo not shown) [Example 200] | > 5.00
CC(C)NCc1cccc(-c2cc(C(N)=O)c3[nH]cc(C4CCN(S(=O)(=O)CCCN(C)C)CC4)c3c2)c1 [Example 214, 3-(1-{[3-(dimethylamino)propyl]sulfonyl}-4-piperidinyl)-5-(3-{[(1-methylethyl)amino]methyl}phenyl)-1H-indole-7-carboxamide] | > 5.00
Cn1cnc(S(=O)(=O)N2CCC(c3c[nH]c4c(C(N)=O)cc(-c5ccccc5)cc34)CC2)c1 [Example 267, 3-{1-[(1-methyl-1H-imidazol-4-yl)sulfonyl]-4-piperidinyl}-5-phenyl-1H-indole-7-carboxamide] | > 5.00
NC(=O)c1cc(-c2ccccc2)cc2c(C3CCN(S(=O)(=O)c4ccc(CNCc5ccccc5)s4)CC3)c[nH]c12 [Example 271, 5-phenyl-3-{1-[(5-{[(phenylmethyl)amino]methyl}-2-thienyl)sulfonyl]-4-piperidinyl}-1H-indole-7-carboxamide] | > 5.00
CC(=O)Nc1nc(C)c(S(=O)(=O)N2CCC(c3c[nH]c4c(C(N)=O)cc(-c5ccccc5)cc34)CC2)s1 [Example 272, 3-(1-{[2-(acetylamino)-4-methyl-1,3-thiazol-5-yl]sulfonyl}-4-piperidinyl)-5-phenyl-1H-indole-7-carboxamide] | > 5.00
Cc1nn(C)c(Cl)c1S(=O)(=O)N1CCC(c2c[nH]c3c(C(N)=O)cc(-c4ccccc4)cc23)CC1 [Example 273, 3-{1-[(5-chloro-1,3-dimethyl-1H-pyrazol-4-yl)sulfonyl]-4-piperidinyl}-5-phenyl-1H-indole-7-carboxamide] | > 5.00
NC(=O)c1cc(-c2ccccc2)cc2c(C3CCN(S(=O)(=O)c4ccc5nonc5c4Cl)CC3)c[nH]c12 [Example 274, 3-{1-[(4-chloro-2,1,3-benzoxadiazol-5-yl)sulfonyl]-4-piperidinyl}-5-phenyl-1H-indole-7-carboxamide] | > 5.00
Cc1nc(S(=O)(=O)N2CCC(c3c[nH]c4c(C(N)=O)cc(-c5ccccc5)cc34)CC2)cn1C [Example 275, 3-{1-[(1,2-dimethyl-1H-imidazol-4-yl)sulfonyl]-4-piperidinyl}-5-phenyl-1H-indole-7-carboxamide] | > 5.00
Cc1nn(C)c(C)c1S(=O)(=O)N1CCC(c2c[nH]c3c(C(N)=O)cc(-c4ccccc4)cc23)CC1 [Example 276, 5-phenyl-3-{1-[(1,3,5-trimethyl-1H-pyrazol-4-yl)sulfonyl]-4-piperidinyl}-1H-indole-7-carboxamide] | > 5.00
Cc1noc(C)c1S(=O)(=O)N1CCC(c2c[nH]c3c(C(N)=O)cc(-c4ccccc4)cc23)CC1 [Example 277, 3-{1-[(3,5-dimethyl-4-isoxazolyl)sulfonyl]-4-piperidinyl}-5-phenyl-1H-indole-7-carboxamide] | > 5.00
Cc1nc(C)c(S(=O)(=O)N2CCC(c3c[nH]c4c(C(N)=O)cc(-c5ccccc5)cc34)CC2)s1 [Example 278, 3-{1-[(2,4-dimethyl-1,3-thiazol-5-yl)sulfonyl]-4-piperidinyl}-5-phenyl-1H-indole-7-carboxamide] | > 5.00
Cc1ncc(S(=O)(=O)N2CCC(c3c[nH]c4c(C(N)=O)cc(-c5ccccc5)cc34)CC2)n1C [Example 279, 3-{1-[(1,2-dimethyl-1H-imidazol-5-yl)sulfonyl]-4-piperidinyl}-5-phenyl-1H-indole-7-carboxamide] | > 5.00
Cn1cnc(S(=O)(=O)N2CCC(c3c[nH]c4c(C(N)=O)cc(-c5ccsc5)cc34)CC2)c1 [Example 280, 3-{1-[(1-methyl-1H-imidazol-4-yl)sulfonyl]-4-piperidinyl}-5-(3-thienyl)-1H-indole-7-carboxamide] | > 5.00
NC(=O)c1cc(-c2ccccc2)cc2c(C3CCN(S(=O)(=O)c4ccsc4)CC3)c[nH]c12 [Example 311, 5-phenyl-3-[1-(3-thienylsulfonyl)piperidin-4-yl]-1H-indole-7-carboxamide] | > 5.00

Next, values leading:

pIC50 | SMILES
> 5.00 | CONCCS(=O)(=O)N1CCC(c2c[nH]c3c(C(N)=O)cc(-c4ccccc4)cc23)CC1 [Example 215, 3-[1-({2-[(methyloxy)amino]ethyl}sulfonyl)-4-piperidinyl]-5-phenyl-1H-indole-7-carboxamide]
> 5.00 | CONCCCS(=O)(=O)N1CCC(c2c[nH]c3c(C(N)=O)cc(-c4ccccc4)cc23)CC1 [Example 219, 3-[1-({3-[(methyloxy)amino]propyl}sulfonyl)-4-piperidinyl]-5-phenyl-1H-indole-7-carboxamide]
> 5.00 | CNCc1cccc(-c2cc(C(N)=O)c3[nH]cc(C4CCN(S(=O)(=O)CCCOC)CC4)c3c2)c1 [Example 223, 5-{3-[(methylamino)methyl]phenyl}-3-(1-{[3-(methyloxy)propyl]sulfonyl}-4-piperidinyl)-1H-indole-7-carboxamide]
> 5.00 | COCCCS(=O)(=O)N1CCC(c2c[nH]c3c(C(N)=O)cc(-c4cccs4)cc23)CC1 [Example 262, 3-(1-{[3-(methyloxy)propyl]sulfonyl}-4-piperidinyl)-5-(2-thienyl)-1H-indole-7-carboxamide]
> 5.00 | CCOCCCS(=O)(=O)N1CCC(c2c[nH]c3c(C(N)=O)cc(-c4ccsc4)cc23)CC1 [Example 263, 3-(1-{[3-(ethyloxy)propyl]sulfonyl}-4-piperidinyl)-5-(3-thienyl)-1H-indole-7-carboxamide]
> 5.00 | CCOCCCS(=O)(=O)N1CCC(c2c[nH]c3c(C(N)=O)cc(-c4cccs4)cc23)CC1 [Example 264, 3-(1-{[3-(ethyloxy)propyl]sulfonyl}-4-piperidinyl)-5-(2-thienyl)-1H-indole-7-carboxamide]
> 5.00 | NC(=O)c1cc(-c2cccs2)cc2c(C3CCN(S(=O)(=O)CCCO)CC3)c[nH]c12 [Example 265, 3-{1-[(3-hydroxypropyl)sulfonyl]-4-piperidinyl}-5-(2-thienyl)-1H-indole-7-carboxamide]
> 5.00 | NC(=O)c1cc(-c2ccccc2)cc2c(C3CCN(S(=O)(=O)c4cccs4)CC3)c[nH]c12 [Example 268, 5-phenyl-3-[1-(2-thienylsulfonyl)-4-piperidinyl]-1H-indole-7-carboxamide]

target: T1, Recombinant human IKKβ (residues 1-737) (Homo sapiens, UniProt O14920); assay: IKK2 Assay (TR-FRET); format: biochemical; conditions: IKK2 5 nM, GST-IκBα 25 nM, ATP 1 μM, 30 minutes at room temperature, read-out: pIC50 against IKK2 (converted)
T1 construct: Recombinant human IKKβ (residues 1-737); GST (C); made in house
T1 sequence (O14920 1-737): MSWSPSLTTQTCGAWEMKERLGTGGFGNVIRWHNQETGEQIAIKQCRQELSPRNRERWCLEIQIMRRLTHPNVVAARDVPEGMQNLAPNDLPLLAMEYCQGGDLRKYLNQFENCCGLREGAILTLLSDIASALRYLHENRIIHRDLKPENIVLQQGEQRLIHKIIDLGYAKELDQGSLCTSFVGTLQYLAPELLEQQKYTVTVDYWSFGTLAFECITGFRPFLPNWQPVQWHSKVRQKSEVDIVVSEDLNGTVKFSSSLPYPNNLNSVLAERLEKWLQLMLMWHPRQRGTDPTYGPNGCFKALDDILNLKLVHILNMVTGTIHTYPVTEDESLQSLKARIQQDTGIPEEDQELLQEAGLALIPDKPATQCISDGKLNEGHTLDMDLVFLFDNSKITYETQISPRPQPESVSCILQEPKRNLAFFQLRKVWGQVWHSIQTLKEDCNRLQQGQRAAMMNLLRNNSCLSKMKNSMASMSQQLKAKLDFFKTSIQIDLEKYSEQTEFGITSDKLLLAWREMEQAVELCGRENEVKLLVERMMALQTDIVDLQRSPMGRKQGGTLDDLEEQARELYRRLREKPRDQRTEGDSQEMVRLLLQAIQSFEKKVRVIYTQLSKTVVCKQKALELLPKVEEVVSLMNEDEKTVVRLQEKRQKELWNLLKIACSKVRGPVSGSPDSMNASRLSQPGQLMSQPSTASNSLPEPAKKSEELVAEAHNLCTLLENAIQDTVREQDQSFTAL
Protocol: Recombinant human IKKβ (residues 1-737) was expressed in baculovirus as a C-terminal GST-tagged fusion protein, and its activity was assessed using a time-resolved fluorescence resonance energy transfer (TR-FRET) assay. Briefly, IKK2 (5 nM final) diluted in assay buffer (50 mM HEPES, 10 mM MgCl2, 1 mM CHAPS pH 7.4 with 1 mM DTT and 0.01% w/v BSA) was added to wells containing various concentrations of compound or DMSO vehicle (3% final). The reaction was initiated by the addition of GST-IκBα substrate (25 nM final)/ATP (1 μM final), in a total volume of 30 μl. The reaction was incubated for 30 minutes at room temperature, then terminated by the addition of 15 μl of 50 mM EDTA. Detection reagent (15 μl) in buffer (100 mM HEPES pH 7.4, 150 mM NaCl and 0.1% w/v BSA) containing antiphosphoserine-IκBα-32/36 monoclonal antibody 12C2 (Cell Signalling Technology, Beverly Mass., USA) labelled with W-1024 europium chelate (Wallac OY, Turku, Finland), and an APC-labelled anti-GST antibody (Prozyme, San Leandro, Calif., USA) was added and the reaction was further incubated for 60 minutes at room temperature. The degree of phosphorylation of GST-IκBα was measured using a Packard Discovery plate reader (Perkin-Elmer Life Sciences, Pangbourne, UK) as a ratio of specific 665 nm energy transfer signal to reference europium 620 nm signal.

IC50 [µM] | SMILES
≤ 10 | NC(=O)c1cc(-c2ccccc2)cc2c(C3CCN(S(=O)(=O)CCNCC4CCCCC4)CC3)c[nH]c12 [Example 38]
≤ 10 | NC(=O)c1cc(-c2ccccc2)cc2c(C3CCN(S(=O)(=O)CCOCC4CCOC4)CC3)c[nH]c12 (stereo not shown) [Example 200]
> 25.1 | COCCCS(=O)(=O)N1CCC(c2c[nH]c3c(C(N)=O)cc(-c4cccc(CNCCN5CCCCC5)c4)cc23)CC1 [Example 249]

Source: patent US7858796B2, “Chemical compounds” (Glaxo Group Limited, priority 2004, dated 2010)
